Experimental data taken from the supplement of paper PMC10307832.

Experiments:
Assay in all cases: relative viability (nuclei count vs DMSO), 5 days (fraction); higher = more cells survive
RAF265 + OSI-027 = compound: Cn1c(Nc2ccc(C(F)(F)F)cc2)nc2cc(Oc3ccnc(-c4ncc(C(F)(F)F)[nH]4)c3)ccc21 [RAF265] + COc1cccc2cc(-c3nc([C@H]4CC[C@H](C(=O)O)CC4)n4ncnc(N)c34)[nH]c12 [OSI-027] (partner 0.5 µM)
Summary of the method: (§1)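 Lung cancer cell lines were seeded in 1536-well plates and dosed by pin tool the next day, with either a single drug or a fixed anchor-drug dose combined with five library-drug doses (not always all listed) spaced in √10 steps. Five days later, one step fixed the cells and stained their nuclei (final 0.05% Triton X-100, 1% formaldehyde, 1 ug/ml Hoechst), and nuclei were counted on 4× images. Relative viability is the nuclei count in treated wells divided by the count in vehicle wells, and each value is the median of duplicate plates.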

RAF265 + AZD7762 = compound: Cn1c(Nc2ccc(C(F)(F)F)cc2)nc2cc(Oc3ccnc(-c4ncc(C(F)(F)F)[nH]4)c3)ccc21 [RAF265] + NC(=O)Nc1cc(-c2cccc(F)c2)sc1C(=O)N[C@H]1CCCNC1 [AZD7762] (partner 0.2 µM)
Summary of the method: as §1

RAF265 + Pemetrexed = compound: Cn1c(Nc2ccc(C(F)(F)F)cc2)nc2cc(Oc3ccnc(-c4ncc(C(F)(F)F)[nH]4)c3)ccc21 [RAF265] + Nc1nc2[nH]cc(CCc3ccc(C(=O)N[C@@H](CCC(=O)O)C(=O)O)cc3)c2c(=O)[nH]1 [Pemetrexed] (partner 0.2 µM)
Summary of the method: as §1

Doramapimod + Linsitinib = compound: Cc1ccc(-n2nc(C(C)(C)C)cc2NC(=O)Nc2ccc(OCCN3CCOCC3)c3ccccc23)cc1 [Doramapimod] + C[C@]1(O)C[C@@H](c2nc(-c3ccc4ccc(-c5ccccc5)nc4c3)c3c(N)nccn32)C1 [Linsitinib] (partner 1 µM)
Summary of the method: as §1

Cell Line | relative viability (RAF265 + OSI-027; first compound 0.01 µM) | relative viability (RAF265 + OSI-027; first compound 0.03162 µM) | relative viability (RAF265 + OSI-027; first compound 0.1 µM) | relative viability (RAF265 + OSI-027; first compound 0.3162 µM) | relative viability (RAF265 + OSI-027; first compound 1 µM) | relative viability (RAF265 + AZD7762; first compound 0.01 µM) | relative viability (RAF265 + AZD7762; first compound 0.03162 µM) | relative viability (RAF265 + AZD7762; first compound 0.1 µM) | relative viability (RAF265 + AZD7762; first compound 0.3162 µM) | relative viability (RAF265 + AZD7762; first compound 1 µM) | relative viability (RAF265 + Pemetrexed; first compound 0.01 µM) | relative viability (RAF265 + Pemetrexed; first compound 0.03162 µM) | relative viability (RAF265 + Pemetrexed; first compound 0.1 µM) | relative viability (RAF265 + Pemetrexed; first compound 0.3162 µM) | relative viability (RAF265 + Pemetrexed; first compound 1 µM) | relative viability (Doramapimod + Linsitinib; first compound 0.02 µM) | relative viability (Doramapimod + Linsitinib; first compound 0.06325 µM) | relative viability (Doramapimod + Linsitinib; first compound 0.2 µM) | relative viability (Doramapimod + Linsitinib; first compound 0.6325 µM) | relative viability (Doramapimod + Linsitinib; first compound 2 µM)
LCLC-103H | 0.466 | 0.439 | 0.464 | 0.443 | 0.308 | 0.815 | 0.911 | 0.767 | 0.727 | 0.598 | 0.496 | 0.423 | 0.476 | 0.459 | 0.429 | 0.99 | 1.06 | 1.09 | 1.09 | 1.03
HCC-15 | 0.674 | 0.605 | 0.566 | 0.26 | 0.304 | 1.31 | 1.17 | 1.12 | 1.27 | 1.18 | 0.232 | 0.232 | 0.231 | 0.235 | 0.23 | 0.846 | 0.863 | 0.889 | 0.944 | 0.806
H3255 | 0.741 | 0.601 | 0.563 | – | 0.473 | 0.931 | 1.01 | 0.877 | – | 0.623 | 0.569 | 0.609 | 0.54 | – | 0.569 | 1.02 | 0.908 | 0.913 | 0.97 | 0.871
NCI-H1792 | 0.681 | 0.691 | 0.72 | 0.444 | 0.25 | 0.638 | 0.568 | 0.475 | 0.11 | 0.0984 | 0.808 | 0.517 | 0.539 | 0.0889 | 0.118 | 0.434 | 0.434 | 0.536 | 0.615 | 0.351
NCI-H596 | 0.982 | 0.751 | 0.784 | 0.563 | 0.554 | 1.29 | 1.08 | 1.03 | 0.877 | 0.548 | 0.565 | 0.504 | 0.474 | 0.538 | 0.448 | 0.99 | 1.03 | 1.02 | 1.05 | 1
NCI-H2087 | 0.653 | 0.426 | 0.426 | 0.193 | 0.334 | 1.19 | 1.18 | 1.02 | 1.2 | 1.12 | 0.599 | 0.669 | 0.549 | 0.649 | 0.543 | 0.976 | 1.13 | 0.939 | 0.962 | 0.951
EMC-BAC-2 | 0.375 | 0.342 | 0.219 | 0.232 | 0.134 | 1.09 | 1.03 | 0.675 | 0.724 | 0.486 | 0.432 | 0.406 | 0.427 | 0.347 | 0.258 | 0.793 | 0.821 | 0.789 | 0.86 | 0.834
NCI-H1355 | 0.461 | 0.314 | 0.3 | 0.251 | 0.217 | 0.816 | 0.668 | 0.772 | 0.68 | 0.515 | 1.05 | 1.02 | 0.972 | 0.96 | 0.714 | 0.804 | 0.819 | 0.824 | 0.908 | 0.779
NCI-H23 | 0.734 | 0.46 | 0.412 | 0.318 | 0.221 | 0.309 | 0.263 | 0.228 | 0.182 | 0.169 | 0.633 | 0.573 | 0.53 | 0.351 | 0.366 | 0.648 | 0.528 | 0.511 | 0.664 | 0.565
NCI-H1651 | 0.783 | 0.776 | 0.695 | 0.52 | 0.362 | 0.508 | 0.497 | 0.401 | 0.406 | 0.365 | 0.587 | 0.567 | 0.431 | 0.494 | 0.532 | 0.92 | 0.844 | 0.923 | 0.977 | 0.917
NCI-H1975 | 0.682 | 0.601 | 0.348 | 0.261 | 0.178 | 0.694 | 0.667 | 0.635 | 0.484 | 0.406 | 0.307 | 0.256 | 0.234 | 0.203 | 0.19 | 1.07 | 0.956 | 0.885 | 0.98 | 0.926
HCC-44 | 0.735 | 0.479 | 0.636 | 0.449 | 0.477 | 1 | 0.985 | 1.03 | 1 | 0.955 | 0.647 | 0.597 | 0.655 | 0.622 | 0.653 | 0.662 | 0.669 | 0.675 | 0.634 | 0.626
LOU-NH91 | 0.703 | 0.653 | 0.737 | 0.45 | 0.486 | 0.756 | 0.71 | 0.687 | 0.631 | 0.551 | 0.365 | 0.336 | 0.427 | 0.419 | 0.441 | 0.967 | 0.91 | 0.972 | 1.06 | 0.686
NCI-H441 | 0.612 | 0.591 | 0.454 | 0.346 | 0.351 | 1.1 | 1.08 | 1.2 | 0.967 | 0.936 | 0.267 | 0.251 | 0.258 | 0.223 | 0.224 | 0.528 | 0.512 | 0.541 | 0.553 | 0.442
NCI-H647 | 0.598 | 0.618 | 0.417 | 0.246 | 0.213 | 0.578 | 0.452 | 0.404 | 0.332 | 0.262 | 0.156 | 0.161 | 0.174 | 0.142 | 0.178 | 1.22 | 1.24 | 1.15 | 1.03 | 1.04
NCI-H1915 | 0.674 | 0.492 | 0.339 | 0.217 | 0.176 | 0.649 | 0.655 | 0.663 | 0.602 | 0.41 | 0.463 | 0.419 | 0.486 | 0.406 | 0.361 | 1.1 | 1.17 | 1.1 | 1.12 | 1.09
NCI-H1734 | 0.604 | 0.54 | 0.38 | 0.381 | 0.247 | 0.545 | 0.516 | 0.437 | 0.325 | 0.217 | 0.386 | 0.43 | 0.469 | 0.507 | 0.417 | 0.864 | 0.755 | 0.721 | 0.767 | 0.662
NCI-H1993 | 0.539 | 0.583 | 0.552 | 0.579 | 0.543 | 0.784 | 0.82 | 0.791 | 0.602 | 0.635 | 0.548 | 0.605 | 0.508 | 0.51 | 0.581 | 0.663 | 0.708 | 0.795 | 0.753 | 0.755
LK-2 | 0.212 | 0.202 | 0.176 | 0.177 | 0.203 | 0.506 | 0.432 | 0.537 | 0.448 | 0.371 | 0.237 | 0.352 | 0.188 | 0.244 | 0.215 | 0.284 | 0.388 | 0.348 | 0.42 | 0.22
HCC-78 | 0.35 | 0.424 | 0.396 | 0.346 | 0.341 | 0.634 | 0.863 | 0.731 | 0.269 | 0.567 | 0.906 | 0.844 | 0.884 | 0.881 | 0.898 | 0.399 | 0.429 | 0.466 | 0.527 | 0.514
NCI-H2405 | 0.601 | 0.626 | 0.621 | 0.611 | 0.366 | 0.849 | 0.723 | 0.634 | 0.549 | 0.326 | 1.14 | 0.922 | 0.91 | 0.662 | 0.516 | 0.973 | 0.869 | 0.933 | 1.27 | 0.852
HOP-62 | 0.807 | 0.774 | 0.698 | 0.731 | 0.631 | 0.572 | 0.553 | 0.462 | 0.482 | 0.422 | 0.261 | 0.306 | 0.267 | 0.246 | 0.245 | 0.88 | 1 | 1.17 | 0.91 | 0.992
NCI-H650 | 0.52 | 0.468 | 0.491 | 0.411 | 0.279 | 0.969 | 0.966 | 0.996 | 0.551 | 0.748 | 0.96 | 0.76 | 0.734 | 0.573 | 0.505 | 0.93 | 1.03 | 1.08 | 0.923 | 0.785
NCI-H358 | 0.864 | 0.617 | 0.305 | 0.194 | 0.18 | 0.46 | 0.515 | 0.491 | 0.279 | 0.184 | 0.159 | 0.165 | 0.151 | 0.149 | 0.147 | 0.68 | 0.598 | 0.611 | 0.722 | 0.667
BEN | 0.261 | 0.29 | 0.312 | 0.311 | 0.293 | 0.675 | 0.805 | 0.837 | 0.674 | 0.661 | 0.795 | 0.835 | 0.99 | 0.798 | 0.692 | 0.834 | 0.893 | 0.906 | 0.769 | 0.854
NCI-H1755 | 0.689 | 0.636 | 0.597 | 0.455 | 0.303 | 0.548 | 0.475 | 0.483 | 0.405 | 0.425 | 0.771 | 0.361 | 0.503 | 0.519 | 0.497 | 0.982 | 1 | 1.02 | 1.05 | 0.996
LC-2-ad | 0.969 | 0.798 | 0.902 | 0.442 | 0.378 | 0.848 | 0.933 | 0.914 | 0.721 | 0.669 | 0.275 | 0.3 | 0.288 | 0.292 | 0.258 | 0.856 | 0.802 | 0.95 | 0.88 | 0.684
